Data: ChEMBL document CHEMBL3785000, “Antitubercular Lanostane Triterpenes from Cultures of the Basidiomycete Ganoderma sp. BCC 16642” (J Nat Prod, 2016)
Converted amounts (≈) assume the structure as drawn.

Tests used:
[1] = tested on: Mycobacterium tuberculosis; test: Antitubercular activity against Mycobacterium tuberculosis H37Ra infected in African green monkey Vero cells measured daily for 8 days by green fluorescent protein microplate assay; type: functional; details: 192 h
Vero = test: Cytotoxicity against African green monkey Vero cells by green fluorescent protein microplate assay; type: cell-based; details: Chlorocebus sabaeus

SMILES	MIC [1] [µg/mL]	IC50 (Vero) [µM]
CO[C@@H]1C[C@H]2C(C)(C)[C@@H](OC(C)=O)CC[C@]2(C)C2=C1[C@]1(C)CC[C@H]([C@H](C)[C@H](C/C=C(\C)C(=O)O)OC(C)=O)[C@@]1(C)CC2	25 (≈ 42.6 µM)	28
CC(=O)O[C@@H](C/C=C(\C)C(=O)O)[C@@H](C)[C@H]1CC[C@@]2(C)C3=C(CC[C@]12C)[C@@]1(C)CCC(=O)C(C)(C)[C@@H]1C[C@H]3O	> 50	> 95
CC(=O)O[C@@H](C/C=C(\C)C(=O)O)[C@@H](C)[C@H]1C[C@H](OC(C)=O)[C@@]2(C)C3=CC[C@H]4C(C)(C)[C@@H](OC(C)=O)CC[C@]4(C)C3=CC[C@]12C	0.781 (≈ 1.27 µM)	16
CC(=O)O[C@H]1CC[C@]2(C)C3=C([C@H](O)C[C@H]2C1(C)C)[C@]1(C)CC[C@H]([C@H](C)CC/C=C(\C)C(=O)O)[C@@]1(C)CC3	25 (≈ 48.6 µM)	72
CC(=O)O[C@H]1CC[C@]2(C)C3=C([C@H](O)C[C@H]2C1(C)C)[C@]1(C)[C@@H](OC(C)=O)C[C@H]([C@H](C)CC/C=C(\C)C(=O)O)[C@@]1(C)CC3	1.56 (≈ 2.72 µM)	32
CC(=O)O[C@@H]1CC[C@]2(C)C3=CC[C@]4(C)[C@@H]([C@H](C)CC/C=C(\C)C(=O)O)CC[C@@]4(C)C3=CC[C@H]2C1(C)C	> 50	89
CO[C@@H]1C[C@H]2C(C)(C)[C@@H](OC(C)=O)CC[C@]2(C)C2=C1[C@]1(C)[C@@H](OC(C)=O)C[C@H]([C@H](C)[C@H](C/C=C(\C)C(=O)O)OC(C)=O)[C@@]1(C)CC2	12.5 (≈ 19.4 µM)	26
NNC(=O)c1ccncc1 [ISONIAZID]	0.094 (≈ 0.685 µM)	
CO[C@@H]1C[C@H]2C(C)(C)[C@@H](OC(C)=O)CC[C@]2(C)C2=C1[C@]1(C)[C@@H](O)C[C@H]([C@H](C)CC/C=C(\C)C(=O)O)[C@@]1(C)CC2	50 (≈ 91.8 µM)	32
CC(=O)O[C@@H](C/C=C(\C)C(=O)O)[C@@H](C)[C@H]1CC[C@@]2(C)C3=CC[C@H]4C(C)(C)[C@H](O)CC[C@]4(C)C3=CC[C@]12C	50 (≈ 97.5 µM)	> 98
CO[C@@H]1C[C@H]2C(C)(C)C(=O)CC[C@]2(C)C2=C1[C@]1(C)CC[C@H]([C@H](C)[C@H](C/C=C(\C)C(=O)O)OC(C)=O)[C@@]1(C)CC2	50 (≈ 92.1 µM)	36
CC(=O)O[C@@H](C/C=C(\C)C(=O)O)[C@@H](C)[C@H]1C[C@H](OC(C)=O)[C@@]2(C)C3=C(CC[C@]12C)[C@@]1(C)CC[C@H](OC(C)=O)C(C)(C)[C@@H]1CC3	3.13 (≈ 5.09 µM)	15
Cc1c2ccncc2c(C)c2c1[nH]c1ccccc12 [ELLIPTECINE]		3.3
CC(=O)O[C@@H](C/C=C(\C)C(=O)O)[C@@H](C)[C@H]1C[C@H](OC(C)=O)[C@@]2(C)C3=C(CC[C@]12C)[C@@]1(C)CC[C@H](OC(C)=O)C(C)(C)[C@@H]1C[C@H]3O	3.13 (≈ 4.96 µM)	28
CC(=O)O[C@@H](C/C=C(\C)C(=O)O)[C@@H](C)[C@H]1CC[C@@]2(C)C3=CC[C@H]4C(C)(C)[C@@H](OC(C)=O)CC[C@]4(C)C3=CC[C@]12C	12.5 (≈ 22.5 µM)	32
CC(=O)O[C@@H](C/C=C(\C)C(=O)O)[C@@H](C)[C@H]1CC[C@@]2(C)C3=C(CC[C@]12C)[C@@]1(C)CCC(=O)C(C)(C)[C@@H]1CC3=O	50 (≈ 94.9 µM)	91
CC(=O)O[C@@H](C/C=C(\C)C(=O)O)[C@@H](C)[C@H]1C[C@H](OC(C)=O)[C@@]2(C)C3=C(CC[C@]12C)[C@@]1(C)CCC(=O)C(C)(C)[C@@H]1C[C@H]3O	> 50	> 85
CC(=O)O[C@@H](C/C=C(\C)C(=O)O)[C@@H](C)[C@H]1C[C@H](OC(C)=O)[C@@]2(C)C3=CC[C@H]4C(C)(C)[C@H](OC(C)=O)CC[C@]4(C)C3=CC[C@]12C [GANODERIC ACID T]	6.25 (≈ 10.2 µM)	28
CC(=O)O[C@@H](C/C=C(\C)C(=O)O)[C@@H](C)[C@H]1C[C@H](O)[C@@]2(C)C3=CC[C@H]4C(C)(C)C(=O)CC[C@]4(C)C3=CC[C@]12C	> 50	> 95
CC(=O)O[C@@H](C/C=C(\C)C(=O)O)[C@@H](C)[C@H]1C[C@H](OC(C)=O)[C@@]2(C)C3=C(CC[C@]12C)[C@@]1(C)CCC(=O)C(C)(C)[C@@H]1CC3	> 50	86
CC(=O)O[C@@H](C/C=C(\C)C(=O)O)[C@@H](C)[C@H]1CC[C@@]2(C)C3=CC[C@H]4C(C)(C)C(=O)CC[C@]4(C)C3=CC[C@]12C	> 50	35
CC(=O)O[C@@H](C/C=C(\C)C(=O)O)[C@@H](C)[C@H]1C[C@H](OC(C)=O)[C@@]2(C)C3=C(CC[C@]12C)[C@@]1(C)CC[C@H](O)C(C)(C)[C@@H]1CC3	50 (≈ 87.3 µM)	30
CC(=O)O[C@H]1CC[C@]2(C)C3=C(CC[C@H]2C1(C)C)[C@]1(C)[C@@H](OC(C)=O)C[C@H]([C@H](C)CC/C=C(\C)C(=O)O)[C@@]1(C)CC3	0.781 (≈ 1.4 µM)	22
CC(=O)O[C@@H](C/C=C(\C)C(=O)O)[C@@H](C)[C@H]1CC[C@@]2(C)C3=C(CC[C@]12C)[C@@]1(C)CC[C@@H](OC(C)=O)C(C)(C)[C@@H]1CC3=O	> 50	33
CC(=O)O[C@@H](C/C=C(\C)C(=O)O)[C@@H](C)[C@H]1CC[C@@]2(C)C3=C(CC[C@]12C)[C@@]1(C)CCC(=O)C(C)(C)[C@@H]1CC3	> 50	93
C/C(=C\CC[C@@H](C)[C@H]1C[C@H](O)[C@@]2(C)C3=CC[C@H]4C(C)(C)C(=O)CC[C@]4(C)C3=CC[C@]12C)C(=O)O	50 (≈ 107 µM)	> 107
